Target: T1, phospholipid hydroperoxide glutathione peroxidase (PHGPx) (Rattus norvegicus, UniProt P36970)
T1 construct: from tissue; host or cells: Wistar rat: cells from seminiferous tubules of the testis, epididymal spermatozoa, sperm mitochondrial capsule
T1 sequence (P36970 3-170 isoform P36970-2 limits assumed): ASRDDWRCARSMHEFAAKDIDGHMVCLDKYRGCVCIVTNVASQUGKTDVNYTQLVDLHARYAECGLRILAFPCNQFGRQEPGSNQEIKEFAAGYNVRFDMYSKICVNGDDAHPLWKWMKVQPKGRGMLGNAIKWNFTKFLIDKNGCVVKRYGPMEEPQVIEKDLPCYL
Assay: PHGPx activity after solubilisation/reduction with thiols (phosphatidylcholine hydroperoxide substrate)
Type: biochemical
Details: for PHGPx activity: 6M guanidine-HCl, pH 7.5, 4° C., 10 min
Method: In fact, the specific activities thus obtained from mitochondrial capsules exceed, by a factor of 20, the highest values ever measured, i.e. in spermatogenic cells. Nevertheless, this extreme PHGPx activity is still low compared to its content in PHGPx protein.
Spermatozoa of four month old Wistar rats (about 300 grams of body weight) were collected by squeezing cauda epididymis and vas deferens in phosphate buffer saline (PBS) and by centrifugating at 600×g for 10 minutes. Cell and sperm pellets were layered on a discontinous 45%, 70% and 95% Percoll gradient and centrifugated at 300×g for 20 min. Spermatogenic cells stacked on top of the gradient, while spermatozoa separated into the 70% Percoll layer. Cells from seminiferous epithelium were prepared as follows (26): testes were deprived of albuginea, seminiferous tubules were cut into small pieces in PBS containing 0.250 mg/ml collagenase, and incubated twice 25° C. for 15 min. Cells then were filtered through a stainless steel screen (140 μm pore), washed in PBS and centrifugated at 300×g for 10 min. Sperm mitochondrial capsule was prepared according to Calvin et al. (1): sperms were resuspended in 0.05 M Tris-HCl pH 8.0 at the concentration of 10^6 cells/ml and treated with trypsin (0.2 mg/ml) for 10 minutes. After stopping the protease action with trypsin inhibitor (0.5 mg/ml) and SDS (10 mg/ml) sperms were centrifugated at 1,500×g for 10 minutes. Pellets were resuspended in 0.05 M Tris-HCl, pH 8.5 containing 1% sodium dodecyl sulphate (SDS), and 0.2 mM DTT and kept under continuous stirring for 30 minutes. Following centrifugation at 4,500×g for 15 min, the resulting supernatant was layered on a 1.6 M sucrose cushion. After centrifugation for 20 min at 18,000×g in a swinging rotor, sperm capsules were collected as a band at the top of the sucrose cushion, washed in Tris-HCl, pH 8.0 and spun at 140,000×g.
When applicable, PHGPx was also identified by activity measurement according to (28) using the specific substrate phosphatidylcholine hydroperoxide.

[1] = 0.1 M thiol in the presence of guanidine, measured after elimination of denaturating and reducing agents

Row | Reactivation of latent PHGPx of sperm mitochondrial capsule / mature spermatozoa [1] | PHGPx activity (Cells from seminiferous tubules, 5 mM 2-mercaptoethanol, mean and S.D. of five) | PHGPx activity (Cells from seminiferous tubules, 100 mM 2-mercaptoethanol, mean and S.D. of five) | PHGPx activity (Mitochondrial capsule, 5 mM 2-mercaptoethanol) | PHGPx activity (Mitochondrial capsule, 100 mM 2-mercaptoethanol, mean and S.D. of five) | PHGPx activity (Spermatozoa from tail of epididymis, 5 mM 2-mercaptoethanol) | PHGPx activity (Spermatozoa from tail of epididymis, 100 mM 2-mercaptoethanol, mean and S.D. of five) | Reactivation of latent PHGPx of sperm mitochondrial capsule / mature spermatozoa (glutathione in the low millimolar range, conventional test conditions) | SMILES
1 | regenerate a significant PHGPx activity |  |  |  |  |  |  |  | O[C@H](CS)[C@H](O)CS (racemic) [dithiothreitol]
2 | regenerate a significant PHGPx activity | 250 ± 10 mU/mg protein | 260 ± 10 mU/mg protein | undetectable | 5,600 ± 290 mU/mg protein | undetectable | 3,140 ± 200 mU/mg protein |  | OCCS [2-mercaptoethanol]
3 |  |  |  |  |  |  |  | neither reactivated | N[C@@H](CCC(=O)N[C@@H](CS)C(=O)NCC(=O)O)C(=O)O [glutathione]

Source: patent US6884601B1, “Method to detect fertilization potential of sperm” (priority 1999, dated 2005)
